Holding throughout (type): biochemical
For test [1], the target named is T1, human MutSbeta (Homo sapiens, UniProt P20585+P43246).
T1 construct: Msh2(1-934), Gene ID NP_000242.1; Msh3(1-1137), Gene ID J04810.1
Description: P33 SPA 1.1. As for the experimental part:
P33 SPA: Enzyme human MutSbeta (Msh2(1-934), Gene ID NP_000242.1, Msh3(1-1137), Gene ID J04810.1) and 22 bp biotin-labeled DNA containing a GT-mismatch (purchased from Curia Global, TOP 5′-[…]-3′; BOT 3′-AGTAGCTAGGC - - - CGAAGTCTACC-5′-Biotin) were pre-incubated at equimolar concentration for 15 min at room temperature (“RT”) in assay buffer (25 mM HEPES pH=7.5, 150 mM KCl, 2 mM MgCl2, 2 mM GSH, 0.01% Tween-20). ATP (10 μL, 2× final concentration of γ-[^33P]-ATP (final 0.1 nM; Hartmann Analytic, FF-301) and cold ATP (final 2 μM)) was added to compounds (400 nL spotted as concentration response in 100% DMSO into wells of an OptiPlate) and pre-incubated for 30 min at RT. Then, enzyme with DNA was added (10 μL, 2× final concentration of 7 nM) and incubated for 60 min at 37° C. in a total volume of 20 μL per well. Decay of [^33P] with a half-life of 25.4 days was corrected by increasing the concentration of the labelled nucleotide with the appropriate factor; all steps with radioactive ATP were conducted behind appropriate shielding. Then, 20 μL of a 1:2 mix of ammonium molybdate (20 mg/mL Ammonium molybdate in 2.4 M HCl) and SPA beads (ProteinA SPA beads from Perkin Elmer Cat #RPNQ0019 at 7.5 mg/mL+1% azide) was added per well and incubated at RT for 2 min. Then, 40 μL of 7 M CsCl and 0.1 M citrate was added per well and incubated for 20 h at RT before measuring on the MicroBeta (top read mode, 1 min per well). For full plate processing, all reagents were transferred with a pipettor (Selma, CyBio) apart from the final reagent (CsCl+citrate) which was added with a dispenser (MultiFlo, BioTek). Data analysis during assay development was done with Prism GraphPad.
P33 SPA 11: For the SPA 1.1 assay, the addition of reagents was reversed, i.e. enzyme was first added to the compounds and pre-incubated followed by ATP addition; thus, the assay was aligned with ADP Glo 1.1 reagent addition order. The assay was repeated under similar conditions, and the results are shown below in Table 5B. It is contemplated the solubility of the compounds and/or varying test occasions may account for variability of assay results.

Test [2] has as its target T1, human MutSbeta. Put plainly: ADP Glo assay 2.2. The conditions noted are these: as 2.1 but buffer with 2 mM GSH. The method, then: (§1) ADP Glo assay 2.1: Enzyme human MutSbeta (Msh2(1-934), Gene ID NP_000242.1, Msh3(1-1137), Gene ID J04810.1) with 22 bp biotin-labeled DNA containing a GT-mismatch (purchased from Curia Global, TOP 5′-[…]-3′; BOT 3′-AGTAGCTAGGC - - - CGAAGTCTACC-5′-Biotin) was pre-incubated in assay buffer (25 mM HEPES pH=7.5, 150 mM KCl, 5 mM MgCl2, 5 mM GSH, 0.1% Pluronic F-127, 0.2% Ovalbumin) to allow formation of the enzyme-DNA complex. Plates with spotted compounds in serial dilutions in DMSO (80 nL) were filled with ATP (2 μL, 10 μM final concentration) followed by an incubation of 30 min at RT. Then, enzyme was added (2 μL, 7 nM final concentration) and the reaction was allowed to proceed for 60 min at 37° C. After the ATPase reaction, the commercially available “ADP-Glo Reagent” was added (incubate 40 min at RT) to deplete remaining ATP via the activity of […]. Subsequently, the commercially available “Kinase Detection Reagent” converted ADP to ATP via the activity of PEP and Pyruvate kinase. The ATP was then converted into light by Ultra-Glo Luciferase. The obtained luminescence was proportional to the ADP concentration generated during the initial ATPase reaction. The luminescence signal was measured with an Envision reader, raw data were analyzed towards controls (full reaction=0% inhibition; no reaction in absence of enzyme=100% inhibition) and IC50 curves were analyzed with the inhouse software Aplus.
ADP Glo assay 2.2: A similar protocol was used as in the ADP Glo Assay 2.1 above, except the following assay buffer was used: 25 mM HEPES pH=7.5, 150 mM KCl, 5 mM MgCl2, 2 mM GSH, 0.1% Pluronic F-127, 0.2% Ovalbumin. It is contemplated the solubility of the compounds and/or varying test occasions and/or assay conditions may account for variability of assay results.

The target in test [3] is T1, human MutSbeta. Put plainly: ADP Glo assay 2.1. The conditions noted are these: 10 μM ATP, 7 nM enzyme; buffer with 5 mM GSH, 0.2% Ovalbumin. As for the experimental part:
as §1
A general note: In ADP-Glo the light output rises with the ADP produced.

[4] abbreviates: Table 5B, assay repeated under similar conditions.
The mark [5] stands for this setting: Table 5A, enzyme first added to compounds, then ATP.

Molecules are shown by their SMILES. Bounds are passed on as bounds.

T1 sequence (P43246 whole entry): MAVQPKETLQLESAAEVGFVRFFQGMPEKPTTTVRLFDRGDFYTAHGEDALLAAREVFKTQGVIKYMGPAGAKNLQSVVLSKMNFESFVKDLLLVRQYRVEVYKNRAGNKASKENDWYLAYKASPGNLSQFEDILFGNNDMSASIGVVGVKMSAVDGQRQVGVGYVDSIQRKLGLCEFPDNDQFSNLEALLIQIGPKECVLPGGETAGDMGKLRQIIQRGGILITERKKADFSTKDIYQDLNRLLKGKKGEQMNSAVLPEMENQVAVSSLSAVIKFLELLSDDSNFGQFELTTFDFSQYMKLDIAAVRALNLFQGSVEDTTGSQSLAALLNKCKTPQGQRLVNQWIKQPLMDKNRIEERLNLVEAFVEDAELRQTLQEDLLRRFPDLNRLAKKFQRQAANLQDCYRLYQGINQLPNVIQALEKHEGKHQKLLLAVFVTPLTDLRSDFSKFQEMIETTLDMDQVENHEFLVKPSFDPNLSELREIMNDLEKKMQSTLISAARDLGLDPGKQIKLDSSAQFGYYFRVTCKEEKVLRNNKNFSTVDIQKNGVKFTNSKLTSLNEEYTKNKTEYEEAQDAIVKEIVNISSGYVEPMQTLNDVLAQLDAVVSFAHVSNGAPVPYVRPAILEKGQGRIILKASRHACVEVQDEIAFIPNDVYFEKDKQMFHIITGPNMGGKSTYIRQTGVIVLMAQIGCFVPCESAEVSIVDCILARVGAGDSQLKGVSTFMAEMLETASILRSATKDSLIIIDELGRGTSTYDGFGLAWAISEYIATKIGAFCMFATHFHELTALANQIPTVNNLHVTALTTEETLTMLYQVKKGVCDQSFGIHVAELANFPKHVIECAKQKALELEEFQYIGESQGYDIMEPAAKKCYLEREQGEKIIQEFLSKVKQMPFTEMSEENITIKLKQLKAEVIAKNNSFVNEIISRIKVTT
T1 sequence (P20585 whole entry): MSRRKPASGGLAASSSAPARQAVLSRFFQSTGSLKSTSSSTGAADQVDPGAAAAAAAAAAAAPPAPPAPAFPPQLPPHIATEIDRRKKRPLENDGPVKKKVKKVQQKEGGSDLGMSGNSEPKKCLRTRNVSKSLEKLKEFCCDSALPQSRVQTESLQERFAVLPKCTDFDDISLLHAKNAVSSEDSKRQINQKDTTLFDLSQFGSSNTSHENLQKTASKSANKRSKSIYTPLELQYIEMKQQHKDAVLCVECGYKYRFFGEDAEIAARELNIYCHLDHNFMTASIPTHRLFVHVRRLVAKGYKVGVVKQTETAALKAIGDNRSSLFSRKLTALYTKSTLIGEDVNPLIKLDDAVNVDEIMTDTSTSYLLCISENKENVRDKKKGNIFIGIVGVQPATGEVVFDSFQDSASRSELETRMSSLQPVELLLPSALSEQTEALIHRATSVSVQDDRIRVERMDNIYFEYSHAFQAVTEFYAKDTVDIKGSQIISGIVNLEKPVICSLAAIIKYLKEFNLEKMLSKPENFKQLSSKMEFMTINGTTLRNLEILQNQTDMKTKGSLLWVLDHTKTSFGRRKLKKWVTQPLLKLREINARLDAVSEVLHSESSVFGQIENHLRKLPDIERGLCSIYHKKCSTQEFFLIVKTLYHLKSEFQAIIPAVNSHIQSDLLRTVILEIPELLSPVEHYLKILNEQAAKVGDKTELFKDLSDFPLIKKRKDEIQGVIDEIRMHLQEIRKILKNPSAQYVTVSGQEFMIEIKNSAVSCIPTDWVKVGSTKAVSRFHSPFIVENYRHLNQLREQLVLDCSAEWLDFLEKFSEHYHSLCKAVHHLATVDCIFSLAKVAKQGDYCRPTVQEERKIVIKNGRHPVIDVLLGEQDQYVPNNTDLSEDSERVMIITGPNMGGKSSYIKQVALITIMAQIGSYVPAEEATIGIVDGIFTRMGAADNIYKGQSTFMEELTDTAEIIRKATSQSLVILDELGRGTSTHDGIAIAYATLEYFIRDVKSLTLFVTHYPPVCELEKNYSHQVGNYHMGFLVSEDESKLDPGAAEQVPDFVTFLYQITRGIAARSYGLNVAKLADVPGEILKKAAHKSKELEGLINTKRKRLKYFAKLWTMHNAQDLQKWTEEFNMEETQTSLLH

As for `Cc1ccc(Nc2nc(N3CCN(C)CC3)nc3nccnc23)cc1S(N)(=O)=O` [Compound 43], the IC50 (commonly the midpoint of a concentration-inhibition curve) is 59 µM at human MutSbeta [1] (setting [4]) and 106 µM against human MutSbeta [2].
As for `CCC(=O)Nc1cccc(Nc2nc(N3CCN(C)CC3)nc3nccnc23)c1` [Compound 37], the IC50 stood at 34 µM against human MutSbeta [1] (setting [5]), 119 µM against human MutSbeta [1] (setting [4]), 97 µM on human MutSbeta [2] and 71 µM against human MutSbeta [3].
For `Cc1ccc(Nc2nc(N3CCN(C)[C@@H](C)C3)nc3nccnc23)cc1C` [Compound 31] the same measures were 25 µM, 45 µM, 41 µM and 19 µM.
For the molecule `CN1CCN(c2nc(Nc3cccc(F)c3)c3nccnc3n2)CC1` [Compound 34], the results for the IC50 against human MutSbeta [1] (setting [5]), against human MutSbeta [1] (setting [4]) and at human MutSbeta [3] were 43 µM, 90 µM and at least 200 µM, respectively.
As to `CN1CCN(c2nc(NCc3cccc(S(N)(=O)=O)c3)c3nccnc3n2)CC1` [Compound 44], the IC50 came to 71 µM against human MutSbeta [1] (setting [4]) and 88 µM on human MutSbeta [2].
As to `Cc1cc(CNc2nc(N3CCCN(C)CC3)nc3nccnc23)ccc1F` [Compound 29], the values for the IC50 against human MutSbeta [1] (setting [5]), at human MutSbeta [1] (setting [4]) and against human MutSbeta [3] were 120 µM, 61 µM and at least 200 µM, respectively.
With `CC(=O)Nc1cccc(CNc2nc(N3CCN(C)CC3)nc3nccnc23)c1` [Compound 46], the IC50 at human MutSbeta [1] (setting [5]) turned out to be 104 µM; on human MutSbeta [1] (setting [4]) it was 120 µM; at human MutSbeta [2], 53 µM; against human MutSbeta [3], 38 µM.
For `Cc1cnc2nc(N3CCN(C)CC3)nc(Nc3ccc(C)c(C)c3)c2n1` [Compound 38, N-(3,4-dimethylphenyl)-6-methyl-2-(4-methylpiperazin-1-yl)pteridin-4-amine] the same measures were 19 µM, 9.5 µM, 10 µM and 13 µM.
`CN1CCN(c2nc(Nc3cccc(Cl)c3)c3nccnc3n2)CC1` [Compound 33, N-(3-chlorophenyl)-2-(4-methylpiperazin-1-yl)pteridin-4-amine]: the IC50 is 44 µM on human MutSbeta [1] (setting [5]), 34 µM on human MutSbeta [1] (setting [4]), 43 µM on human MutSbeta [2] and 35 µM at human MutSbeta [3].
For the molecule `CN1CCN(c2nc(Nc3cccc(C4CC4C(=O)O)c3)c3nccnc3n2)CC1` (single isomer, unassigned) [Compound 47], the IC50 against human MutSbeta [1] (setting [5]) is 59 µM; at human MutSbeta [1] (setting [4]), 56 µM; on human MutSbeta [2], 38 µM; against human MutSbeta [3], 55 µM.
`Cc1ccc(Oc2nc(N3CCN(C)CC3)nc3nccnc23)cc1C` [Compound 32]: the IC50 against human MutSbeta [1] (setting [5]) was 118 µM; against human MutSbeta [1] (setting [4]), 47 µM; at human MutSbeta [3], at least 200 µM.
For `CCC(=O)Nc1cccc(Nc2nc(N3CCCN(C)CC3)nc3nccnc23)c1` [Compound 35] the same measures were 80 µM, 55 µM and at least 200 µM.
For `Cc1cccc(Nc2nc(N3CCN(C)CC3)nc3nccnc23)c1C` [Compound 39, N-(2,3-dimethylphenyl)-2-(4-methylpiperazin-1-yl)pteridin-4-amine] the same measures were 158 µM, 36 µM and at least 200 µM.
Regarding `Cc1ccc(CNc2nc(N3CCCN(C)CC3)nc3nccnc23)cc1C` [Compound 28], the IC50 amounted to 55 µM against human MutSbeta [1] (setting [5]), 131 µM at human MutSbeta [1] (setting [4]), 82 µM at human MutSbeta [2] and 38 µM at human MutSbeta [3].
As for `Cc1cc(CNc2nc(N3CCN(C(C)C)CC3)nc3nccnc23)ccc1F` [Compound 26], the IC50 against human MutSbeta [1] (setting [5]) amounted to 59 µM; against human MutSbeta [1] (setting [4]), 75 µM; on human MutSbeta [2], 95 µM; against human MutSbeta [3], 36 µM.
For `Cc1cc(CNc2nc(N3CCN(C)CC3)nc3nccnc23)ccc1F` [Compound 25] the same measures were 20 µM, 24 µM, 35 µM and 29 µM.
As to `COc1ccc(Nc2nc(N3CCN(C)CC3)nc3nccnc23)cc1Cl` [Compound 30], the IC50 on human MutSbeta [1] (setting [5]) came out at 23 µM; at human MutSbeta [1] (setting [4]), 28 µM; on human MutSbeta [2], 25 µM; against human MutSbeta [3], 23 µM.
As for `Cc1ccc(CNc2nc(N3CCN(C)CC3)nc3nccnc23)cc1C` [Compound 27], the IC50 on human MutSbeta [1] (setting [5]) came to 28 µM; on human MutSbeta [1] (setting [4]), 18 µM; on human MutSbeta [2], 26 µM; on human MutSbeta [3], 22 µM.
Turning to `Cc1ccc(Nc2nc(N3CCCN(C)CC3)nc3nccnc23)cc1C` [Compound 23, N-(3,4-dimethylphenyl)-2-(4-methyl-1,4-diazepan-1-yl)pteridin-4-amine], the IC50 against human MutSbeta [1] (setting [5]) is 71 µM; against human MutSbeta [1] (setting [4]), 64 µM; on human MutSbeta [3], at least 200 µM.
Turning to `Cc1ccc(Nc2nc(N3CCN(C(C)C)CC3)nc3nccnc23)cc1C` [Compound 24], the IC50 amounted to 24 µM on human MutSbeta [1] (setting [5]), 25 µM at human MutSbeta [1] (setting [4]), 60 µM against human MutSbeta [2] and 37 µM against human MutSbeta [3].
`COc1cccc(Nc2nc(N3CCN(C)CC3)nc3nccnc23)c1` [Compound 40]: the IC50 at human MutSbeta [1] (setting [5]) came to 43 µM; on human MutSbeta [1] (setting [4]), 61 µM; at human MutSbeta [2], 34 µM; against human MutSbeta [3], 16 µM.
As for `Cc1ccc(Nc2nc(N3CCN(C)CC3)nc3nccnc23)cc1C(N)=O` [Compound 45], the IC50 against human MutSbeta [1] (setting [5]) was found to be 38 µM; at human MutSbeta [1] (setting [4]), 84 µM; on human MutSbeta [2] it was 76 µM; at human MutSbeta [3], 55 µM.
For `CN1CCN(c2nc(Nc3cccc(C4CC4C(=O)O)c3)c3nccnc3n2)CC1` (single isomer, unassigned) [Compound 48] the same measures were 12 µM, 9 µM, 27 µM and 13 µM.
Consider `Cc1cc(Nc2nc(N3CCN(C)CC3)nc3nccnc23)ccc1C(N)=O` [Compound 41], for which the IC50 on human MutSbeta [1] (setting [4]) is 50 µM; at human MutSbeta [2], 50 µM; on human MutSbeta [3] it was 28 µM.
For the molecule `CN1CCN(c2nc(NCc3cccc(S(C)(=O)=O)c3)c3nccnc3n2)CC1` [Compound 42], the IC50 on human MutSbeta [1] (setting [4]) was 108 µM; against human MutSbeta [2], 119 µM; at human MutSbeta [3], at least 200 µM.
